In brackets after ≈: the same amount, converted by molar mass. Entries after “also recorded” stand apart in the source; their conditions may differ. Marks after values point to notes of the source that are not given here.
Legend:
[1] = Six-week stability study (elevated humidity, 60° C., room conditions); format: physicochemical
Protocol: The stability to elevated humidity and air oxidation was investigated for both Form 1 and Form 2 of the Free Base. Samples of both materials were stored at 40° C./75% RH, 25° C./96% RH, 60° C. in contact with air and ambient conditions (25° C. in contact with air) for six weeks, and analyses by XRPD, HPLC and ^1H-NMR (for oxidation study samples only) were carried out weekly.

[2] = Solubility in solvents, slow cooling and evaporation experiments; format: physicochemical; settings: 50° C.
Protocol: 4-(4-(imidazo[1,2-b]pyridazin-2-ylmethoxy)phenyl)-2,2-dimethyl-5-(pyridin-4-yl)furan-3(2H)-one (Form 2 or Form 1; ca. 10 mg per experiment) was weighed into vials, and the stated solvents were added, in increasing portions at 50° C. With each addition, the vials were allowed to shake for ˜20 minutes. Any solutions observed were allowed to cool to room temperature. Those experiments that remained as solutions were pin-holed to allow the solvent to slowly evaporate. Any suspensions observed were subjected to heat/cool cycles, between room temperature and 50° C., four hours at each condition.

[3] = Thermodynamic aqueous solubility; settings: for solubility thermodynamic at 24 h: 25 °C, thermodynamic from solid
Protocol: The suspension was equilibrated at 25° C. for 24 hours then the pH was measured and adjusted with either HCl or NaOH if it deviated by more than 0.3 units from the target pH. The suspension was then filtered through a glass fiber C filter. […] Different volumes of the standard, diluted and undiluted sample solutions were injected.
Analysis was performed on an Agilent HP1100 series system equipped with a diode array detector and using ChemStation software. The following buffers were prepared to carry out the solubility analyses:
pH 1.2—made up by adding 85.0 mL of 0.2M HCl(aq) to 50 mL of 0.2M KCl(aq) and making up to 200 mL. pH 4.5—made up by adding 2.99 g of NaC2H3O2.3H2O to 14.0 mL of 2N AcOH(aq) and making up to 1000 mL. pH 7.4—made up adding 39.1 mL of 0.2M NaOH(aq) to 50.0 mL of a 0.2M KH2PO4 and making up to 200 mL.

[4] = Stability of amorphous material at room and elevated humidity conditions; format: physicochemical
Protocol: A DSC experiment was performed to assess the possibility of preparing amorphous material by melting and quench cooling. A sample of Form 1 (˜1 mg) was heated to 200° C. until it melted, then quickly cooled down to −80° C. and re-heated at 10° C./min. […] The crystalline Form 1 then melted at 184° C.
The experiment was repeated on a larger scale (batches of ˜60 mg) on the TGA instrument, and the resulting glasses were used as input materials for maturation experiments. Samples were also stored at elevated humidity conditions for re-analysis by XRPD after 24 h.

CC1(C)OC(c2ccncc2)=C(c2ccc(OCc3cn4ncccc4n3)cc2)C1=O [Form 2, 4-(4-(imidazo[1,2-b]pyridazin-2-ylmethoxy)phenyl)-2,2-dimethyl-5-(pyridin-4-yl)furan-3(2H)-one]
Purity (area %) ([1]; 25° C./96% RH, Week 1): 99.3 area % | Purity (area %) ([1]; 25° C./96% RH, Week 2): 98.9 area % | Purity (area %) ([1]; 25° C./96% RH, Week 3): 98.9 area % | Purity (area %) ([1]; 25° C./96% RH, Week 4): 98.9 area % | Purity (area %) ([1]; 25° C./96% RH, Week 5, samples run after 24 hours in solution): 98.0* area % | Purity (area %) ([1]; 25° C./96% RH, Week 6): 98.9 area % | Stability to elevated humidity and air oxidation ([1]; 40° C./75% RH, 25° C./96% RH, 60° C. and ambient conditions, six weeks, XRPD, HPLC, 1H-NMR): No significant changes; also recorded: no significant degradation | Purity (area %) ([1]; 40° C./75% RH, Week 1): 99.5 area % | Purity (area %) ([1]; 40° C./75% RH, Week 2): 99.1 area % | Purity (area %) ([1]; 40° C./75% RH, Week 3): 99.2 area % | Purity (area %) ([1]; 40° C./75% RH, Week 4): 99.1 area % | Purity (area %) ([1]; 40° C./75% RH, Week 5, samples run after 24 hours in solution): 98.8* area % | Purity (area %) ([1]; 40° C./75% RH, Week 6): 98.9 area % | Purity (area %) ([1]; 60° C., Week 1): 98.9 area % | Purity (area %) ([1]; 60° C., Week 2): 99.1 area % | 1H-NMR ([1]; 60° C., Week 4): Very weak | Purity (area %) ([1]; 60° C., Week 4): 99.0 area % | Purity (area %) ([1]; 60° C., Week 5, samples run after 24 hours in solution): 98.6* area % | Purity (area %) ([1]; 60° C., Week 6): 99.0 area % | Purity (area %) ([1]; Room conditions, Week 1): 99.2 area % | Purity (area %) ([1]; Room conditions, Week 2): 98.6 area % | Purity (area %) ([1]; Room conditions, Week 4): 98.6 area % | Purity (area %) ([1]; Room conditions, Week 5, samples run after 24 hours in solution): 98.2* area % | Purity (area %) ([1]; Room conditions, Week 6): 98.2 area % | Stability at 60° C. in contact with air ([1]; after 6 weeks, XRPD and HPLC): No significant changes by XRPD or HPLC analyses after | Stability at room conditions (25° C. in contact with air) ([1]; after 6 weeks, XRPD and HPLC): No significant changes by XRPD or HPLC analyses after | Stability at 25° C./96% RH ([1]; after 6 weeks, XRPD and purity): No significant changes by XRPD or purity after 6 weeks | Stability at 40° C./75% RH ([1]; after 6 weeks, XRPD and purity): No significant changes by XRPD or purity after 6 weeks | Stability to humidity ([1]; elevated humidity and temperature conditions, after 6 weeks): No changes observed at elevated | Solubility (volumes) ([2]; BuOAc, 50 volumes): Almost | Solubility (volumes) ([2]; BuOAc, 100 volumes): Almost | Solubility (volumes) ([2]; Ethanol, 50 volumes): Almost | Solubility (volumes) ([2]; IPA, 50 volumes): Almost | Solubility (volumes) ([2]; IPA, 100 volumes): Almost | Solubility (volumes) ([2]; IPAc, 50 volumes): Almost | Solubility (volumes) ([2]; IPAc, 100 volumes): Almost | Solubility (volumes) ([2]; MEK, 20 volumes): Almost | Solubility (volumes) ([2]; MIBK, 50 volumes): Almost | Solubility (volumes) ([2]; MIBK, 100 volumes): Almost | Solubility (volumes) ([2]; MeCN/H2O, 10 volumes): Almost | Solubility (volumes) ([2]; Methanol, 10 volumes): Almost | Solubility (volumes) ([2]; Nitromethane, 10 volumes): Almost | Solubility (volumes) ([2]; Toluene, 50 volumes): Almost | pH of saturated unfiltered solution ([3]; DI water): 7.23 | solubility thermodynamic at 24 h ([3]; deionized water, water, DI water, 24 hours): 40 µg/mL (≈ 97 µM) | thermodynamic aqueous solubility ([3]; deionized water, at pH 7.67 (Form 1), pH 7.23 (Form 2)): about 0.04 mg/ml | pH of saturated unfiltered solution ([3]; pH 1.2 buffer): 1.73 | solubility thermodynamic at 24 h ([3]; pH 1.2 buffer, pH 1.2, simulated gastric fluid, 24 hours): 37800 µg/mL (≈ 91600 µM) | pH of saturated unfiltered solution ([3]; pH 4.5 buffer): 4.65 | solubility thermodynamic at 24 h ([3]; pH 4.5 buffer, pH 4.5, aqueous buffer, 24 hours): 50 µg/mL (≈ 121 µM) | pH of saturated unfiltered solution ([3]; pH 7.4 buffer): 7.46 | Thermodynamic solubility ([3]; pH 7.4 buffer, 25° C., 24 hours): 40 µg/mL

CC1(C)OC(c2ccncc2)=C(c2ccc(OCc3cn4ncccc4n3)cc2)C1=O [amorphous material, 4-(4-(imidazo[1,2-b]pyridazin-2-ylmethoxy)phenyl)-2,2-dimethyl-5-(pyridin-4-yl)furan-3(2H)-one]
Form by XRPD after storage at elevated humidity ([4]; elevated humidity conditions, 24 h): All solids displayed Form 1 | Form on standing at room conditions ([4]; typically 25° C., 40% RH): converted to Form 1
